What was measured:
[1] = system: Alopecurus myosuroides (ALOMY); assay: Pre-emergence biological efficacy, glasshouse pot test; assay type: in vivo; conditions: 312 h, 1,000 g/ha, evaluated after 13 days, 100=total damage, 0=no damage, read-out: Percentage damage caused to weed species, pre-emergence, ALOMY
Method: (§1) Seeds of Alopecurus myosuroides (ALOMY), Setaria faberi (SETFA), Echinochloa crus-galli (ECHCG), Solanum nigrum (SOLNI), Amaranthus retroflexus (AMARE) and Ipomoea hederaceae (IPOHE) were sown in standard soil in pots. After cultivation for one day under controlled conditions in a glasshouse (at 24/16° C., day/night; 14 hours light; 65% humidity), the plants were sprayed with an aqueous spray solution derived from the formulation of the technical active ingredient in acetone/water (50:50) solution containing 0.5% Tween 20 (polyoxyethylene sorbitan monolaurate, CAS RN 9005-64-5) to give a final dose of 1000 g/ha of test compound.
(§2) The test plants were then grown under controlled conditions in the glasshouse (at 24/16° C., day/night; 14 hours light; 65% humidity) and watered twice daily. After 13 days the test was evaluated (100=total damage to plant; 0=no damage to plant).

[2] = system: Amaranthus retroflexus (AMARE); assay: as above; assay type: in vivo; conditions: 312 h, 1,000 g/ha, evaluated after 13 days, 100=total damage, 0=no damage, read-out: Percentage damage caused to weed species, pre-emergence, AMARE
Method: as §1, §2

[3] = system: Echinochloa crus-galli (ECHCG); assay: as above; assay type: in vivo; conditions: 312 h, 1,000 g/ha, evaluated after 13 days, 100=total damage, 0=no damage, read-out: Percentage damage caused to weed species, pre-emergence, ECHCG
Method: as §1, §2

[4] = system: Ipomoea hederaceae (IPOHE); assay: as above; assay type: in vivo; conditions: 312 h, 1,000 g/ha, evaluated after 13 days, 100=total damage, 0=no damage, read-out: Percentage damage caused to weed species, pre-emergence, IPOHE
Method: as §1, §2

[5] = system: Setaria faberi (SETFA); assay: as above; assay type: in vivo; conditions: 312 h, 1,000 g/ha, evaluated after 13 days, 100=total damage, 0=no damage, read-out: Percentage damage caused to weed species, pre-emergence, SETFA
Method: as §1, §2

[6] = system: Solanum nigrum (SOLNI); assay: as above; assay type: in vivo; conditions: 312 h, 1,000 g/ha, evaluated after 13 days, 100=total damage, 0=no damage, read-out: Percentage damage caused to weed species, pre-emergence, SOLNI
Method: as §1, §2

[7] = system: Alopecurus myosuroides (ALOMY); assay: Post-emergence biological efficacy, glasshouse pot test; assay type: in vivo; conditions: 312 h, 1,000 g/ha, post-emergence (sprayed after 8 days), evaluated after 13 days, 100=total damage, 0=no damage, read-out: Percentage damage caused to weed species, post-emergence, ALOMY
Method: as §1, with “8 days” for “one day”
(§3) The test plants were then grown on under controlled conditions in a glasshouse (at 24/16° C., day/night; 14 hours light; 65% humidity) and watered twice daily. After 13 days the test was evaluated (100=total damage to plant; 0=no damage to plant).

[8] = system: Amaranthus retroflexus (AMARE); assay: as above; assay type: in vivo; conditions: 312 h, 1,000 g/ha, post-emergence (sprayed after 8 days), evaluated after 13 days, 100=total damage, 0=no damage, read-out: Percentage damage caused to weed species, post-emergence, AMARE
Method: as §1, with “8 days” for “one day”
as §3

[9] = system: Echinochloa crus-galli (ECHCG); assay: as above; assay type: in vivo; conditions: 312 h, 1,000 g/ha, post-emergence (sprayed after 8 days), evaluated after 13 days, 100=total damage, 0=no damage, read-out: Percentage damage caused to weed species, post-emergence, ECHCG
Method: as §1, with “8 days” for “one day”
as §3

[10] = system: Ipomoea hederaceae (IPOHE); assay: as above; assay type: in vivo; conditions: 312 h, 1,000 g/ha, post-emergence (sprayed after 8 days), evaluated after 13 days, 100=total damage, 0=no damage, read-out: Percentage damage caused to weed species, post-emergence, IPOHE
Method: as §1, with “8 days” for “one day”
as §3

[11] = system: Setaria faberi (SETFA); assay: as above; assay type: in vivo; conditions: 312 h, 1,000 g/ha, post-emergence (sprayed after 8 days), evaluated after 13 days, 100=total damage, 0=no damage, read-out: Percentage damage caused to weed species, post-emergence, SETFA
Method: as §1, with “8 days” for “one day”
as §3

[12] = system: Solanum nigrum (SOLNI); assay: as above; assay type: in vivo; conditions: 312 h, 1,000 g/ha, post-emergence (sprayed after 8 days), evaluated after 13 days, 100=total damage, 0=no damage, read-out: Percentage damage caused to weed species, post-emergence, SOLNI
Method: as §1, with “8 days” for “one day”
as §3

[13] = system: Maize cv CLAXXON; assay: Safening on corn, general crop injury; assay type: in vivo; conditions: 200 g ai/ha (with safener 200 + 200), sprayed at 3-leaf stage, 100% total damage, 0% no damage
Method: (§4) Maize seeds were sown into standard soil in pots and cultivated under controlled conditions in a glasshouse (at 24/18° C. day/night; 16 hours light; 65% humidity).
(§5) When the plants were at the vegetative stage of 3 leaves they were sprayed with an aqueous spray solution containing the components of the invention alone and where appropriate the herbicide safener (N-(2-methoxybenzoyl)-4-[(methylaminocarbonyl)amino]benzenesulfonamide). All the compounds used for the spray solution were present as an EC or SC formulation respectively. In addition a non-ionic surfactant (X-77 Spreader) was added to form a 0.2% v/v solution.
(§6) The spray solution was applied with a cabinet tracksprayer with a flat fan nozzle (Teejet 11002VS) and an application volume of 200 L/ha (at 2 bar).
(§7) The test plants were then grown on in a glasshouse under controlled conditions (at 24/18° C. day/night; 16 hours light; 65% humidity) and watered twice a day. After 7 and 17 days the test was evaluated for general crop injury (100% equals total damage to plant; 0% equals no damage to plant).

[14] = system: Maize cv GARLAND; assay: Safening on corn, general crop injury; assay type: in vivo; conditions: 200 g ai/ha (with safener 200 + 200), sprayed at 3-leaf stage, 100% total damage, 0% no damage
Method: as §4, §5, §6, §7

Row | SMILES | pest or weed control at 1000 g/ha [1] [%] | pest or weed control at 1000 g/ha [2] [%] | pest or weed control at 1000 g/ha [3] [%] | pest or weed control at 1000 g/ha [4] [%] | pest or weed control at 1000 g/ha [5] [%] | pest or weed control at 1000 g/ha [6] [%] | pest or weed control at 1000 g/ha [7] [%] | pest or weed control at 1000 g/ha [8] [%] | pest or weed control at 1000 g/ha [9] [%] | pest or weed control at 1000 g/ha [10] [%] | pest or weed control at 1000 g/ha [11] [%] | pest or weed control at 1000 g/ha [12] [%] | Percentage damage caused to corn, Maize cv CLAXXON, 7 days after application [13] [%] | Percentage damage caused to corn, Maize cv CLAXXON, 17 days after application [13] [%] | Percentage damage caused to corn, Maize cv GARLAND, 7 days after application [14] [%] | Percentage damage caused to corn, Maize cv GARLAND, 17 days after application [14] [%] | melting point
1 | C=Cc1c(N)cc(Cl)nc1C(=O)O [Compound 1-4, 4-amino-6-chloro-3-ethenyl-pyridine-2-carboxylic acid] | 90 | 100 | 90 | 100 | 100 | 100 | 80 | 100 | 80 | 70 | 100 | 100 | 60 | 50 | 60 | 65 | 141 to 146 °C (dec.)
2 | COC(=O)c1nc(Cl)cc(N)c1-c1ccc(Cl)cc1 [Compound 2-168, 4-Amino-6-chloro-3-(4-chlorophenyl)-pyridine-2-carboxylic acid methyl ester] | 30 | 90 | 20 | 80 | 0 | 80 | 20 | 100 | 10 | 70 | 20 | 80 | – | – | – | – | –
3 | C=Cc1c(N2CCCC2)cc(Cl)nc1C(=O)OC [Compound 31-4, 6-Chloro-3-ethenyl-4-pyrrolidin-1-yl-pyridine-2-carboxylic acid methyl ester] | 60 | 100 | 10 | 80 | 50 | 90 | 20 | 90 | 20 | 70 | 50 | 90 | – | – | – | – | –
4 | C=Cc1c(NC2CCCC2)cc(Cl)nc1C(=O)OC [Compound 27-4, 6-Chloro-4-cyclopentylamino-3-ethenyl-pyridine-2-carboxylic acid methyl ester] | 50 | 100 | 10 | 50 | 70 | 100 | 10 | 100 | 10 | 60 | 70 | 80 | – | – | – | – | –
5 | C/C=C/c1c(N)cc(Cl)nc1C(=O)OC [2-5 (E isomer), (E)-4-Amino-6-chloro-3-(prop-1-enyl)-pyridine-2-carboxylic acid methyl ester] | 90 | 90 | 70 | 100 | 100 | 100 | 50 | 100 | 60 | 70 | 70 | 90 | – | – | – | – | –
6 | COC(=O)c1nc(Cl)cc(N)c1C [Compound 2-1, 4-amino-6-chloro-3-methyl-pyridine-2-carboxylic acid methyl ester] | 90 | 100 | 70 | 80 | 80 | 100 | 90 | 100 | 60 | 50 | 100 | 90 | – | – | – | – | –
7 | C=Cc1c(C(=O)O)nc(Cl)c(F)c1N [Compound 1-12, 4-Amino-6-chloro-3-ethenyl-5-fluoro-pyridine-2-carboxylic acid] | 90 | 100 | 90 | 100 | 100 | 100 | 90 | 100 | 90 | 100 | 90 | 90 | 60 | 50 | 60 | 50 | –
8 | C=Cc1c(NC2CC2)cc(Cl)nc1C(=O)OC [Compound 23-4, 6-Chloro-4-cyclopropylamino-3-ethenyl-pyridine-2-carboxylic acid methyl ester] | 70 | 100 | 70 | 80 | 80 | 100 | 60 | 100 | 30 | 70 | 80 | 100 | – | – | – | – | –
